This note sets out measurements from ChEMBL document CHEMBL5543118, “Optimization of Potent Ligands for the E3 Ligase DCAF15 and Evaluation of Their Use in Heterobifunctional Degraders” (J Med Chem, 2024).

pIC50: −log10 of the molar value. The source made the active and inactive calls. No cut-off for these calls is given here.

One data set relates to HEK293. In words: Cytotoxicity against human HEK293 cells expressing HiBiT tag-BRD4 assessed as cell viability at 10 uM measured after 24 hrs. In kind it is toxicity, cell-based. Particulars: hek293, 24 h.
A short description of data set [1]: Binding affinity to human His6-HALO-TEV DCAF15/DDB1/DDA1 complex assessed as displacement of fluorophore tagged indisulam analogue from complex measured after 1 hr by TR-FRET assay. On the technique in general: In TR-FRET formats the signal depends on donor and acceptor labels being close together.
Data set [2] can be described thus: Lipophilicity, logD of the compound in octanol/water at pH 7.4 by shake flask method. In kind it is physicochemical.
Data set [3] deals with T1, Bromodomain-containing protein 4/DDB1- and CUL4-associated factor 15 (Homo sapiens, UniProt O60885+Q66K64). In words: PROTAC activity at HiBiT tag-BRD4/DCAF15 E3 ligase (unknown origin) expressed in HEK293 cells in presence of (+)-JQ1 incubated for 24 hrs by HiBit degradation assay. The class given is cell-based.
T1 sequence (Q66K64 whole entry, looked up, other chains not shown): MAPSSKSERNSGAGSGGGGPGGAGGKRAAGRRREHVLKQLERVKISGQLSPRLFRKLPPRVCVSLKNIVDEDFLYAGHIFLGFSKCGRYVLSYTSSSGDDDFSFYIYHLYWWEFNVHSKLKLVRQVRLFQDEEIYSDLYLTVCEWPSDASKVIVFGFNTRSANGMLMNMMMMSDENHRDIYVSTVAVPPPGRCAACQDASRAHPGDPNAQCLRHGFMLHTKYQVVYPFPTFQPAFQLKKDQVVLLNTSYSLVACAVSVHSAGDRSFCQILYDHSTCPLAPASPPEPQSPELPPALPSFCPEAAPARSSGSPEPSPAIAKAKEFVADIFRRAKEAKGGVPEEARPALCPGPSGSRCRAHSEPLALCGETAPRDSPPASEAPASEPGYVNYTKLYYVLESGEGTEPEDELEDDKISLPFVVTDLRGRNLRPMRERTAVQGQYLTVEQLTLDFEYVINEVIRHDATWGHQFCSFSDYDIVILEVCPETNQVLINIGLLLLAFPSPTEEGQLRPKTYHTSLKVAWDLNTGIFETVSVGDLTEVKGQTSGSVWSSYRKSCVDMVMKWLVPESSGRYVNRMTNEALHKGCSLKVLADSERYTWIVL
Data set [4] deals with DDB1- and CUL4-associated factor 15/RNA-binding protein 39 (Homo sapiens) (UniProt Q14498+Q66K64). In words: PROTAC activity at RBM39/DCAF15 E3 ligase (unknown origin) assessed as degradation at 0.1 to 10 uM by Western blotting analysis. The class given is cell-based. Particulars: HEK293, dose 0.1-10 µM. On the technique in general: A western blot detects proteins with antibodies after separation by electrophoresis.
Chain of DDB1- and CUL4-associated factor 15/RNA-binding protein 39 (Homo sapiens) (Q14498 whole entry, looked up): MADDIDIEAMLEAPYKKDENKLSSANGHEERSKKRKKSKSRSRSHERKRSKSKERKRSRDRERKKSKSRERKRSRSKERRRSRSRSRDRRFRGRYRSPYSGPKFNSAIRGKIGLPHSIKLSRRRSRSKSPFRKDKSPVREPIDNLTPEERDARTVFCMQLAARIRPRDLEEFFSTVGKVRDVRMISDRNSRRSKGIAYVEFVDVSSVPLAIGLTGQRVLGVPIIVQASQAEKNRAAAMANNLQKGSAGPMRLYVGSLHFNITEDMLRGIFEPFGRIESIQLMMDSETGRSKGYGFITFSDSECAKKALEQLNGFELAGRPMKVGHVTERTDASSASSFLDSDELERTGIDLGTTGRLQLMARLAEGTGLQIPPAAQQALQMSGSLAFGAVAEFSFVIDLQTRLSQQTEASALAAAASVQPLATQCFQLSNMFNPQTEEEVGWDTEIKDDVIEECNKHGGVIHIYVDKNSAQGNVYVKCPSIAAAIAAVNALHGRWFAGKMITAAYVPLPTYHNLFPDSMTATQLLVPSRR
Chain of DDB1- and CUL4-associated factor 15/RNA-binding protein 39 (Homo sapiens) (Q66K64 whole entry, looked up): as the sequence (Q66K64 whole entry, looked up, other chains not shown) above

A short description of data set [5]: Aqueous solubility of the compound in DMSO measured for 20 to 24 hrs. In kind it is physicochemical. As to conditions: time 20-24 hrs.
The target of data set [6] is T1, Bromodomain-containing protein 4/DDB1- and CUL4-associated factor 15. The data set is described as follows: PROTAC activity at HiBiT tag-BRD4/DCAF15 E3 ligase (unknown origin) expressed in HEK293 cells assessed as maximal degradation incubated for 6 hrs by HiBit degradation assay relative to control. In kind it is cell-based.
Data set [7] shares this target. In words: PROTAC activity at HiBiT tag-BRD4/DCAF15 E3 ligase (unknown origin) expressed in HEK293 cells in presence of MLN4924 incubated for 24 hrs by HiBit degradation assay. The class given is cell-based. (In general: HiBiT is a short tag that completes a luciferase, so light tracks the accessible tagged protein.)
The target is the same in data set [8]. In words: PROTAC activity at HiBiT tag-BRD4/DCAF15 E3 ligase (unknown origin) expressed in HEK293 cells incubated for 6 hrs by HiBit degradation assay. The class given is cell-based.
For data set [9] the target is unchanged. The data set is described as follows: PROTAC activity at BRD4/DCAF15 E3 ligase (unknown origin) assessed as maximal degradation incubated for 16 hrs by immunoblot analysis relative to control. The class given is protein assay.
For data set [10] the target is unchanged. The data set is described as follows: PROTAC activity at BRD4/DCAF15 E3 ligase (unknown origin) incubated for 16 hrs by immunoblot analysis. The class given is protein assay.

The pIC50 is −log10 of the IC50, conventionally taken in molar units. For orientation: logD means the decadic logarithm of the distribution of all forms, ionised or not, between an organic phase and buffer at a given pH. The low end stands for lower lipophilicity, the high end for higher lipophilicity. Consider `CNC(=O)C1CCN(C(=O)c2oc(S(=O)(=O)Nc3ccc(Cl)c4c(Cl)c[nH]c34)cc2C)CC1`, for which the Activity entry in the data set on HEK293 is recorded as “Toxic”. Moreover, the pIC50 in data set [1] was 7.28. In addition, the logD in data set [2] was found to be 2.1. Besides, the outcome in data set [3] was Active. The outcome in data set [4] was inactive.

For `CN(C)C(=O)c1nc(S(=O)(=O)Nc2ccc(Cl)c3c(Cl)c[nH]c23)cn1C`, the pIC50 in data set [1] was 6.07. Moreover, in data set [2], the logD was found to be 2.2.

Take `CNC(=O)c1oc(S(=O)(=O)Nc2ccc(Cl)c3c(Cl)c[nH]c23)cc1C`: the pIC50 in data set [1] is 6.24. The log distribution coefficient (logD) in data set [2] came to 2.9.

With `Cc1cc(S(=O)(=O)Nc2ccc(Cl)c3c(Cl)c[nH]c23)oc1C(=O)N1CCCCC1`, in [1], the pIC50 was 7.34. Further, the logD in [2] turned out to be 3.6.

`COCCNC(=O)c1oc(S(=O)(=O)Nc2ccc(Cl)c3c(Cl)c[nH]c23)cc1C`: the pIC50 in data set [1] was 6.30. In data set [2], the logD was found to be 2.8.

`Cc1cc(S(=O)(=O)Nc2ccc(Cl)c3c(Cl)c[nH]c23)oc1C(=O)N(C)C`: in [1], the pIC50 is 6.66. Besides, the logD in data set [2] came out at 2.7.

Regarding `Cc1coc(S(=O)(=O)Nc2ccc(Cl)c3c(Cl)c[nH]c23)c1`, the pIC50 in data set [1] is 5.93. This compound also showed a logD in data set [2] of 3.7.

As to `N#Cc1cccc(S(=O)(=O)Nc2ccc(C#N)c3c(Cl)c[nH]c23)c1`, the pIC50 in data set [1] is 5.36. In addition, the logD in data set [2] was 1.7.

With `CN(C)C(=O)c1oc(S(=O)(=O)Nc2ccc(Cl)c3c(Cl)c[nH]c23)cc1Cl`, the pIC50 in [1] is 6.40. Besides, in data set [2], the logD stood at 2.3.

On to `N#Cc1cccc(S(=O)(=O)Nc2ccc(Cl)c3c(C#N)c[nH]c23)c1`, for which, in data set [1], the pIC50 is 5.81. The compound further displayed a logD in data set [2] of 2.4.

In the case of `Cc1sc(S(=O)(=O)Nc2ccc(Cl)c3c(Cl)c[nH]c23)nc1C(=O)N(C)C`, in data set [1], the pIC50 is 6.30. Moreover, the logD in data set [2] was 1.5.

Take `N#Cc1cccc(S(=O)(=O)Nc2cc(Cl)cc3c(Cl)c[nH]c23)c1`: the pIC50 in [1] is 5.84. Further, the logD in data set [2] amounted to 3.8.

In the case of `Cc1cc(S(=O)(=O)Nc2ccc(Cl)c3c(Cl)c[nH]c23)sc1C(=O)N(C)C`, the pIC50 in [1] was 6.65. In [2], the logD worked out at 3.1.

As to `CNC(=O)[C@H]1CCN(C(=O)c2oc(S(=O)(=O)Nc3ccc(Cl)c4c(Cl)c[nH]c34)cc2C)C1`, in data set [1], the pIC50 is 6.16. Also, the logD in data set [2] worked out at 2.

Take `Cc1sc(S(=O)(=O)Nc2ccc(Cl)c3c(Cl)c[nH]c23)cc1C(=O)N(C)C`: in [1], the pIC50 is 6.21. Moreover, the logD in data set [2] was 3.

`N#Cc1cccc(S(=O)(=O)Nc2ccc(F)c3c(C#N)c[nH]c23)c1`: the pIC50 in data set [1] was 5.15. In [2], this compound gave a logD of 2.

For `CNC(=O)C1CN(C(=O)c2oc(S(=O)(=O)Nc3ccc(Cl)c4c(Cl)c[nH]c34)cc2C)C1`, in data set [1], the pIC50 is 6.01. This compound yielded a logD in [2] of 1.9.

On to `COc1ccc(NS(=O)(=O)c2cccc(C#N)c2)c2[nH]cc(C#N)c12`, for which, in data set [1], the pIC50 was less than 4.00. The compound also came in with a logD in data set [2] of 2.2.

`Cc1ccc(NS(=O)(=O)c2cccc(C#N)c2)c2[nH]cc(C#N)c12` [E-7820]: in data set [1], the pIC50 was 5.63. In data set [2], this compound came in with a logD of 2.6.

Regarding `Cc1cc(S(=O)(=O)Nc2ccc(Cl)c3c(Cl)c[nH]c23)oc1C(=O)N1CCN(C)CC1`, the pIC50 in [1] is 6.41. Moreover, the logD in [2] turned out to be 2.2.

For the compound `CNC(=O)[C@@H]1CCN(C(=O)c2oc(S(=O)(=O)Nc3ccc(Cl)c4c(Cl)c[nH]c34)cc2C)C1`, in data set [1], the pIC50 is 6.55. In addition, in data set [2], the logD was 2.

The term solubility denotes how much of the substance goes into solution per volume. A word on the Emax: it is the greatest response seen or fitted, relative to the assay's reference. Consider `Cc1cc(S(=O)(=O)Nc2ccc(Cl)c3c(Cl)c[nH]c23)oc1C(=O)N1CCC(C(=O)N2CCN(CC3CCN(C(=O)C[C@@H]4N=C(c5ccc(Cl)cc5)c5c(sc(C)c5C)-n5c(C)nnc54)CC3)CC2)CC1`, for which the pIC50 in data set [1] was 7.13. The compound also yielded a solubility in [5] of less than 0.16 µM. Besides, in data set [2], the logD is greater than 4. The Emax in [6] is 69%. For the same compound, the outcome in [7] was inactive. For the same compound, the DC50 in [8] amounted to 453 nM.

Take `Cc1sc2c(c1C)C(c1ccc(Cl)cc1)=N[C@@H](CC(=O)NCCOCCOCCNC(=O)c1cccc(S(=O)(=O)Nc3ccc(C)c4c(C#N)c[nH]c34)c1)c1nnc(C)n1-2`: the Emax in [9] was found to be 98%. Also, in data set [10], the DC50 was determined as 10800 nM.

In the case of `N#Cc1cccc(S(=O)(=O)Nc2ccc(Cl)c3c(Cl)c[nH]c23)c1`, in [1], the pIC50 is 6.15. This compound also showed a logD in data set [2] of 4.

For the compound `CN(C)C(=O)c1ccc(S(=O)(=O)Nc2ccc(Cl)c3c(Cl)c[nH]c23)o1`, the pIC50 in data set [1] is 6.17. This compound also yielded a log distribution coefficient (logD) in [2] of 2.3.
